Read-outs that look alike come from different tables or passages of the source.
Experiments:
[1] = system: HIV; details: cited from earlier work; for HIV inhibitory activity: disclosed in earlier patents/applications
[2] = system: Sheep choroid plexus (SCP) cells; experiment: Toxicity of compounds in control wells without virus, graded morphologically; assay type: cell-based
Protocol: (§1) Sheep choroid plexus (SCP) cells were obtained from American Type Culture Collection (ATCC) catalogue number CRL 1700 and were routinely passaged in vitro in Dulbecco's Modified Eagles (DME) medium supplemented with 20% fetal bovine serum (FBS). SCP cells were passaged once per week at a 1:2 or 1:3 split ratio. Visna was titrated by plaque assay in six-well plates. Virus pools were stored at -70° C.
(§2) SCP cells were cultured in 6-well plates to confluence. Wells were washed two times with serum free Minimal Essential Medium (MEM) to remove FBS. 0.2 ml of virus was added per well in MEM supplemented with 4 mM glutamine and gentamycin. After 1 hour adsorption, the virus was aspirated from each well. The appropriate concentration of each compound in 5 ml of Medium 199 (M-199) supplemented With 2% lamb serum, 4 mM glutamine, 0.5% agarose and gentamycin was added to each well. Cultures were incubated at 37° C. in a humidified 5% CO2 incubator for 3-4 weeks. To terminate the test: cultures were fixed in 10% formalin, the agar removed, the monolayers stained with 1% crystal violet and plaques counted. Each compound concentration was run in triplicate. […] 0 is no toxicity observed while 4 is total lysing of the cell monolayer.

[3] = system: visna virus; experiment: Plaque reduction assay, inhibition of visna virus in vitro; assay type: cell-based; design: key to Antiviral Activity: A: active compound; I: inactive compound; details: for Antiviral Activity: Table 1; for inhibition at 1 µM / inhibition at 10 µM / inhibition at 100 µM / inhibition at 1000 µM: Visna-maedi virus, Table 2
Description: Visna virus, a lentivirus genetically very similar to the AIDS virus, is pathogenic for sheep and goats. See Sonigo et al., Cell 42, 369-382 (1985); Haase, Nature 322, 130-136 (1986). Inhibition of visna virus replication in vitro as a useful model for human immunodeficiency virus (HIV) and its inhibition by test compounds has been described by Franket al., Antimicrobial Agents and Chemotherapy 31 (9), 1369-1374 (1987). The N-butyl derivative of 1,5-dideoxy-1,5-imino-D-glucitol, also referred to as n-butyl-deoxynojirimycin (N-Bu-DNJ), was used as a control standard for comparison with various novel compounds of this invention.
Various compounds as prepared above were tested for inhibition of visna virus in vitro in a plaque reduction assay as follows:
as §1, §2

[4] = system: Sheep choroid plexus (SCP) cells; experiment: Toxicity of compounds in control wells without virus, graded morphologically; assay type: cell-based; design: key: 0: no toxicity; 4: total cell lysates; details: 0 to 4 scale, Table 1
Protocol: as §1, §2

[5] = Pharmacokinetic and metabolism study, Rhesus monkey; assay type: in vivo; details: monkey, oral, plasma and urine
Protocol: The parent tetrabutyrate compound consequently serves as an antivirally effective and useful pro-drug of the latter compound to which it is metabolized in the gut. […] The parent pro-drug was not detected. […] The oral bioactivity of the metabolite compound, measured as [^14 C]-metabolite compound, was determined to be between 28% and 50% in the Rhesus monkey, depending on the vehicle used (e.g., 0.5% methyl cellulose and 0.1% polysorbate in water). […] The blood levels of the metabolite compound, measured as part of a long term SIV infected monkey efficacy study, following oral dosing (high dose 750 mg/kg, low dose 250 mg/kg, administered every eight hours) with the pro-drug, yielded mean trough (cmin) plasma blood levels of the metabolite compound at eight hours post dosing of approximately 10 μg/mL and 6.8 μg/mL for the high and low doses, respectively.

[6] = system: Sheep choroid plexus (SCP) cells; experiment: Toxicity of compounds in control wells without virus, graded morphologically; assay type: cell-based; design: key: 0: no toxicity observed; 4: total lysing of the cell monolayer; details: graded 0 to 4, Table 2
Protocol: as §1, §2

OC[C@H]1NC[C@H](O)[C@@H](O)[C@@H]1O [deoxynojirimycin, 1,5-dideoxy-1,5-imino-D-glucitol]
HIV inhibitory activity [1]: HIV inhibitory activity

CCCCN1C[C@H](OC(=O)CC)[C@@H](OC(=O)CC)[C@H](OC(=O)CC)[C@H]1COC(=O)CC [Example 17, 1,5-(Butylimino)-1,5-dideoxy-D-glucitol, tetrapropionate]
Toxicity ([2]; 0.01 mM, 0 to 4 scale, Table 1): 2 | Antiviral Activity ([3]; 0.01 mM): A | Antiviral Activity ([3]; 0.1 mM): Toxic | Toxicity ([4]; 0.1 mM): 4

CCCCN1C[C@H](OC(C)=O)[C@@H](OC(C)=O)[C@@H]2O[C@H](c3ccccc3)OC[C@H]21 [Example 24, 1,5-(Butylimino)-1,5-dideoxy-4R,6-O-(phenylmethylene)-D-glucitol, diacetate]
Antiviral Activity ([3]; 1.0 mM): A | Toxicity ([4]; 1.0 mM): 0

CCCCCCCCCN1C[C@H](OC(C)=O)[C@@H](OC(C)=O)[C@H](OC(C)=O)[C@H]1COC(C)=O [Example 14, 1,5-(Nonylimino)-1,5-dideoxy-D-glucitol, tetraacetate]
Toxicity ([2]; 0.1 mM, 0 to 4 scale, Table 1): 2 | Antiviral Activity ([3]; 0.001 mM): A | Antiviral Activity ([3]; 0.01 mM): A | Antiviral Activity ([3]; 0.1 mM): A | Antiviral Activity ([3]; 1.0 mM): Toxic | Toxicity ([4]; 0.001 mM): 0 | Toxicity ([4]; 0.01 mM): 0 | Toxicity ([4]; 1.0 mM): 4

CC(=O)OC[C@@H]1[C@@H](OC(C)=O)[C@H](OC(C)=O)[C@@H](OC(C)=O)CN1C(=O)CCc1ccccc1 [Example 20, 1,5-(Hydrocinnamoylimino)-1,5-dideoxy-D-glucitol, tetraacetate]
Toxicity ([2]; 0.1 mM, 0 to 4 scale, Table 1): 1 | Toxicity ([2]; 1.0 mM, 0 to 4 scale, Table 1): 2 | Antiviral Activity ([3]; 0.01 mM): A | Antiviral Activity ([3]; 0.1 mM): A | Antiviral Activity ([3]; 1.0 mM): A | Toxicity ([4]; 0.01 mM): 0

CCCCN1C[C@H](OC(=O)C(C)C)[C@@H](OC(=O)C(C)C)[C@H](OC(=O)C(C)C)[C@H]1COC(=O)C(C)C [Example 22, 1,5-(Butylimino)-1,5-dideoxy-D-glucitol, tetraisobutyrate]
Antiviral Activity ([3]; 0.01 mM): A | Antiviral Activity ([3]; 0.1 mM): A | Antiviral Activity ([3]; 1.0 mM): A | Toxicity ([4]; 0.01 mM): 0 | Toxicity ([4]; 0.1 mM): 0 | Toxicity ([4]; 1.0 mM): 0

CCCCN1C[C@H](OC(=O)c2ccccc2)[C@@H](OC(=O)c2ccccc2)[C@H](OC(=O)c2ccccc2)[C@H]1COC(=O)c1ccccc1 [Example 18, 1,5-(Butylimino)-1,5-dideoxy-D-glucitol, tetrabenzoate]
Toxicity ([2]; 0.1 mM, 0 to 4 scale, Table 1): 1 | Antiviral Activity ([3]; 0.1 mM): A | Antiviral Activity ([3]; 1.0 mM): A | Toxicity ([4]; 1.0 mM): 0

CCCCN1C[C@H](O)[C@@H](O)[C@H](O)[C@H]1CO [N-Bu-DNJ, 1,5-(Butylimino)-1,5-dideoxy-D-glucitol, reference compound]
Toxicity ([2]; 0.1 mM, 0 to 4 scale, Table 1): 1 | Toxicity ([2]; 1.0 mM, 0 to 4 scale, Table 1): 2 | metabolic profiles of either radiolabeled compound (pro-drug, metabolite) [5]: the same in plasma and urine | Antiviral Activity ([3]; 0.001 mM): I | Antiviral Activity ([3]; 0.01 mM): I | Antiviral Activity ([3]; 0.1 mM): A | Antiviral Activity ([3]; 1.0 mM): A | Toxicity ([4]; 0.001 mM): 0 | Toxicity ([4]; 0.01 mM): 0 | HIV inhibitory activity [1]: HIV inhibitory activity | HIV inhibitory activity ([1]; listed as N-butyl derivative of deoxynojirimycin): substantially more effective anti-HIV activity

CCCCN1C[C@H](OC(=O)C(C)(C)C)[C@@H](O)[C@H](OC(=O)C(C)(C)C)[C@H]1COC(=O)C(C)(C)C [Example 50B]
Toxicity ([2]; 0.1 mM, graded 0 to 4, Table 2): 1 | Toxicity ([2]; 1.0 mM, graded 0 to 4, Table 2): 2 | Toxicity ([6]; 0.001 mM): 0 | Toxicity ([6]; 0.01 mM): 0 | inhibition at 1 µM ([3]; 0.001 mM): 17% | inhibition at 10 µM ([3]; 0.01 mM): 33% | inhibition at 100 µM ([3]; 0.1 mM): 75% | inhibition at 1000 µM ([3]; 1.0 mM): 76%

CC(=O)OC[C@H]1NC[C@H](OC(C)=O)[C@@H](OC(C)=O)[C@@H]1OC(C)=O [Example 3, 1,5-Dideoxy-1,5-imino-D-glucitol, tetraacetate]
Antiviral Activity ([3]; 0.5 mM): A | Antiviral Activity ([3]; 1.0 mM): A | Toxicity ([4]; 0.5 mM): 0 | Toxicity ([4]; 1.0 mM): 0

Cc1cn([C@H]2C[C@H](N=[N+]=[N-])[C@@H](CO)O2)c(=O)[nH]c1=O [AZT, 3'-azido-3'-deoxythymidine]
inhibition of virus replication in vitro ([1]; in vitro): inhibit replication of the virus in vitro

CC(=O)OC[C@@H]1[C@@H](OC(C)=O)[C@H](OC(C)=O)[C@@H](OC(C)=O)CN1C(=O)c1cccnc1 [Example 35, 1,5-[(3-Nicotinoyl)imino]-1,5-dideoxy-D-glucitol, tetraacetate]
Toxicity ([2]; 0.1 mM, graded 0 to 4, Table 2): 1 | Toxicity ([2]; 1.0 mM, graded 0 to 4, Table 2): 3 | Toxicity ([6]; 0.01 mM): 0 | inhibition at 10 µM ([3]; 0.01 mM): 10% | inhibition at 100 µM ([3]; 0.1 mM): 90% | inhibition at 1000 µM ([3]; 1.0 mM): 94%

CCCCN1C[C@H](OC(C)=O)[C@@H](OC(C)=O)[C@H](OC(C)=O)[C@H]1COC(C)=O [Example 7, 1,5-(Butylimino)-1,5-dideoxy-D-glucitol, tetraacetate]
Antiviral Activity ([3]; 0.1 mM): A | Antiviral Activity ([3]; 0.5 mM): A | Antiviral Activity ([3]; 1.0 mM): A | Toxicity ([4]; 0.1 mM): 0 | Toxicity ([4]; 0.5 mM): 0 | Toxicity ([4]; 1.0 mM): 0

CCOC(=O)CC(=O)N1C[C@H](OC(C)=O)[C@@H](OC(C)=O)[C@H](OC(C)=O)[C@H]1COC(C)=O [Example 8, 1,5-(Ethylmalonylimino)-1,5-dideoxy-D-glucitol, tetraacetate]
Antiviral Activity ([3]; 0.1 mM): A | Antiviral Activity ([3]; 1.0 mM): A | Toxicity ([4]; 0.1 mM): 0 | Toxicity ([4]; 1.0 mM): 0

CN1C[C@H](O)[C@@H](O)[C@H](O)[C@H]1CO [Example 9, 1,5-(Methylimino)-1,5-dideoxy-D-glucitol]
HIV inhibitory activity [1]: HIV inhibitory activity

CCCC(=O)OC[C@H]1NC[C@H](OC(=O)CCC)[C@@H](OC(=O)CCC)[C@@H]1OC(=O)CCC [Example 42, 1,5-Dideoxy-1,5-imino-D-glucitol, tetrabutyrate]
Toxicity ([2]; 0.01 mM, graded 0 to 4, Table 2): 1 | Toxicity ([2]; 0.1 mM, graded 0 to 4, Table 2): 2 | Toxicity ([6]; 0.001 mM): 0 | Toxicity ([6]; 1.0 mM): 4 | inhibition at 1 µM ([3]; 0.001 mM): 31% | inhibition at 10 µM ([3]; 0.01 mM): 13% | inhibition at 100 µM ([3]; 0.1 mM): 97%

CC(=O)OC[C@@H]1[C@@H](OC(C)=O)[C@H](OC(C)=O)[C@@H](OC(C)=O)CN1CCCC(F)(F)F [Example 63, 1,5-(4,4,4-Trifluorobutylimino)-1,5-dideoxy-D-glucitol, tetraacetate]
Toxicity ([2]; 1.0 mM, graded 0 to 4, Table 2): 2 | Toxicity ([6]; 0.1 mM): 0 | inhibition at 100 µM ([3]; 0.1 mM): 2% | inhibition at 1000 µM ([3]; 1.0 mM): 90%

CC(=O)OC[C@@H]1[C@@H](OC(C)=O)[C@H](OC(C)=O)[C@@H](OC(C)=O)CN1C(=O)c1ccccc1 [Example 5, 1,5-(Benzoylimino)-1,5-dideoxy-D-glucitol, tetraacetate]
Antiviral Activity ([3]; 0.1 mM): A | Antiviral Activity ([3]; 0.5 mM): A | Antiviral Activity ([3]; 1.0 mM): A | Toxicity ([4]; 0.1 mM): 0 | Toxicity ([4]; 0.5 mM): 0 | Toxicity ([4]; 1.0 mM): 0

CC(=O)OC[C@@H]1[C@@H](OC(C)=O)[C@H](OC(C)=O)[C@@H](OC(C)=O)CN1C(=O)Cc1ccccc1 [Example 4, 1,5-(Phenylacetylimino)-1,5-dideoxy-D-glucitol-tetraacetate]
Antiviral Activity ([3]; 0.5 mM): A | Antiviral Activity ([3]; 1.0 mM): A | Toxicity ([4]; 0.5 mM): 0 | Toxicity ([4]; 1.0 mM): 0

CCCC(=O)OC[C@@H]1[C@@H](O)[C@H](OC(=O)CCC)[C@@H](OC(=O)CCC)CN1CCCCCC(F)(F)F [Example 66, 1,5-(6,6,6-Trifluorohexylimino)-1,5-dideoxy-D-glucitol, 2,3,6-tributyrate]
Toxicity ([2]; 0.1 mM, graded 0 to 4, Table 2): 1 | Toxicity ([2]; 1.0 mM, graded 0 to 4, Table 2): 2 | Toxicity ([6]; 0.001 mM): 0 | Toxicity ([6]; 0.01 mM): 0 | inhibition at 1 µM ([3]; 0.001 mM): -3% | inhibition at 10 µM ([3]; 0.01 mM): 38% | inhibition at 100 µM ([3]; 0.1 mM): 88% | inhibition at 1000 µM ([3]; 1.0 mM): 100%

— patent US5310745A, “Antiviral compounds” (priority 1992, dated 1994)
